# Key:
# Assay type in all cases: cell-based
# S. mutans (ATCC 25175) [1] = experiment: Determination of the minimum bactericidal concentration (MBC); conditions: Streptococcus mutans, ATCC25175; against S. Mutans
# Experimental: (§1) A 20 mg/mL compound stock solution in BHI medium is prepared. In a 96-well plate, the compound solution is diluted serially (the concentration is halved at each step) to obtain the following final concentrations after addition of the bacteria suspension: 10 mg/mL; 5 mg/mL; 2.5 mg/mL; 1.25 mg/mL; 0.625 mg/mL; 0.31 mg/mL; 0.15 mg/mL; 0.08 mg/mL; 0.04 mg/mL; 0.02 mg/mL. Wells containing a mixture of penicillin and streptomycin antibiotics are used as a positive control. Compound-free medium is used as a growth control. A volume of bacterial suspension equal to 0.5*10^6 bacteria/mL is added to each well containing the compound and the controls. The dish is incubated at 37° C. for 24 hours. The lowest compound concentration at which no turbidity of the culture medium is evident is defined as MIC. For the calculation of MBC, aliquots equal to 50 μL are taken from the wells showing evident no turbidity of the medium and are plated on BHI agar plates for 48 hours. […] Bacterial suspensions taken from the positive control (growth medium only) and the negative control (growth medium with Ampicilin 100 μg/mL) are also seeded.
# (§2) In order to test the antibacterial properties of the compounds prepared in Examples 1-8, on colonies of S. mutans (ATCC 25175), a bacterium commonly found in the human oral cavity, a test was set up to determine the minimum inhibitory concentration (MIC) and the minimum bactericidal concentration (MBC) according to the “Determination of minimum inhibitory concentration (MIC)” methods and “Determination of minimum bactericidal concentration (MBC)” described above.
# S. mutans (ATCC 25175) [2] = experiment: Determination of the minimum inhibitory concentration (MIC); conditions: Streptococcus mutans, ATCC25175; against S. Mutans
# Experimental: (§3) A colony of bacterium taken from agar plate is inoculated in Brain Hearth Infusion medium (BHI) and grown overnight at 37° C. The next day, the bacteria are diluted in fresh medium containing the phenol red indicator, up to a density of 10^6 bacteria/mL.
# (§4) A stock solution of 2 mg/mL of compound is prepared in BHI medium containing phenol red.
# (§5) In a 96-well plate, the compound stock solution is diluted serially (the concentration is halved at each step) to obtain the following final concentrations after addition of the bacteria suspension: 1 mg/mL; 0.5 mg/mL; 0.25 mg/mL; 0.125 mg/mL; 0.065 mg/mL; 0.032 mg/mL; 0.016 mg/mL; 0.008 mg/mL; 0.004 mg/mL; 0.002 mg/mL; 0.001 mg/mL. A compound-free medium is used as a growth control. A volume of bacterial suspension equal to 0.5*10^6 bacteria/mL is added to each well containing the compound and the control. The dish is incubated at 37° C. for 24 hours. Bacterial growth in each well is detected by the phenol red, which turns from red to yellow following acidification of the medium induced by bacterial metabolism. The lowest concentration of the compound causing no evident color change corresponds to the MIC.
# as §2
# bacteria grown on agar = experiment: Determination of bacterial inhibition - agar diffusion test of primer formulations; conditions: for zone of inhibition at 1 % strength: 1% by weight of compound; for zone of inhibition at 5 % strength: 5% by weight of compound; for zone of inhibition at 10 % strength: 10% by weight of compound
# From the text: A test adapted from a commonly used method for determining the sensitivity of a bacterial strain to antibiotics in solution, known as Kirby-Bauer antibiotic testing or disc diffusion antibiotic sensitivity testing was used (Brown D F, Kothari D (1975), “Comparison of antibiotic discs from different sources”, J. Clin. Pathol. 28 (10): 779-83. Doi: 10.1136 /jcp.28.10.779). The test performed involves the use of discs imbued with a known concentration of the substance under examination that are placed on a layer of bacteria grown on agar. The diffusion of the bactericidal molecule from the disk into the agar causes the inhibition of bacterial growth in the area surrounding the disk itself where the molecule has spread with the formation of what are called zones of growth inhibition. The diameter of these inhibition zones (transparent circular regions in comparison to the bacterial film) is proportional to the antibacterial efficacy of the molecule to its concentration and to its diffusion ability in the medium.
# The bactericidal properties of the compounds according to Examples 1, 3, 5, 6 and 7 were tested in various primer-type preparations, using the method “Bacterial inhibition determination-Agar diffusion test” described above. The disk soaked in the tested primer formulation without addition of compounds according to Examples 1, 3, 5, 6 and 7 was used as a negative reference.
# For the tests, the following primer-type formulations were used, identified by the following codes: […]
# E. coli (ATCC25922) [3] = experiment: Determination of the minimum inhibitory concentration (MIC); conditions: Escherichia coli
# Experimental: as §3, §4, §5
# (§6) The compounds according to Examples 1, 3, 5, 6, and 7 were tested on bacterial strains different from S. mutans with the same methods described above, obtaining the MIC and MBC values reported in Table 2.
# S. Mitis (ATCC 49456) [4] = experiment: as above; conditions: Streptococcus mitis, ATCC49456
# Experimental: as §3, §4, §5, §6
# S. Aureus (ATCC 25923) [5] = experiment: as above; conditions: Staphylococcus aureus, ATCC25923
# Experimental: as §3, §4, §5, §6
# S. Sanguis (ATCC 10556) [6] = experiment: as above
# Experimental: as §3, §4, §5, §6
# E. coli (ATCC25922) [7] = experiment: Determination of the minimum bactericidal concentration (MBC)
# Experimental: as §1, §6
# S. Mitis (ATCC 49456) [8] = experiment: as above
# Experimental: as §1, §6
# S. Aureus (ATCC 25923) [9] = experiment: as above
# Experimental: as §1, §6
# S. Sanguis (ATCC 10556) [10] = experiment: as above
# Experimental: as §1, §6
compound,measurement,setting,value
C=C(C)C(=O)OCC[N+](C)(C)CCCCCCCCCCCC[N+](C)(C)CCOC(=O)C(=C)C [Example 2],MBC,S. mutans (ATCC 25175) [1],313 µg/mL
same,MIC,S. mutans (ATCC 25175) [2],156 µg/mL
C=C(C)C(=O)NCCC[N+](C)(C)CCCCCCCCCCCC[N+](C)(C)CCCNC(=O)C(=C)C.[Br-].[Br-] [Example 3],zone of inhibition at 1 % strength,bacteria grown on agar; primer L1A,8 mm
same,zone of inhibition at 5 % strength,bacteria grown on agar; primer L1A,11 mm
same,zone of inhibition at 10 % strength,bacteria grown on agar; primer L1A,13 mm
same,zone of inhibition at 1 % strength,bacteria grown on agar; primer L1B,0 mm
same,zone of inhibition at 5 % strength,bacteria grown on agar; primer L1B,7 mm
same,zone of inhibition at 10 % strength,bacteria grown on agar; primer L1B,10 mm
same,zone of inhibition at 1 % strength,bacteria grown on agar; primer L2A,6 mm
same,zone of inhibition at 5 % strength,bacteria grown on agar; primer L2A,7 mm
same,zone of inhibition at 10 % strength,bacteria grown on agar; primer L2A,10 mm
same,zone of inhibition at 1 % strength,bacteria grown on agar; primer L2B,6 mm
same,zone of inhibition at 5 % strength,bacteria grown on agar; primer L2B,7 mm
same,zone of inhibition at 10 % strength,bacteria grown on agar; primer L2B,10 mm
same,zone of inhibition at 1 % strength,bacteria grown on agar; primer R5A,6 mm
same,zone of inhibition at 5 % strength,bacteria grown on agar; primer R5A,6 mm
same,zone of inhibition at 10 % strength,bacteria grown on agar; primer R5A,8 mm
same,zone of inhibition at 1 % strength,bacteria grown on agar; primer R5B,0 mm
same,zone of inhibition at 5 % strength,bacteria grown on agar; primer R5B,0 mm
same,zone of inhibition at 10 % strength,bacteria grown on agar; primer R5B,8 mm
same,MIC,E. coli (ATCC25922) [3],1250 µg/mL
same,MIC,S. Mitis (ATCC 49456) [4],620 µg/mL
same,MIC,S. Aureus (ATCC 25923) [5],625 µg/mL
same,MIC,S. Sanguis (ATCC 10556) [6],620 µg/mL
same,MBC,S. mutans (ATCC 25175) [1],310 µg/mL
same,MIC,S. mutans (ATCC 25175) [2],150 µg/mL
same,MCB,E. coli (ATCC25922) [7],1.25 mg/mL
same,MCB,S. Mitis (ATCC 49456) [8],0.62 mg/mL
same,MCB,S. Aureus (ATCC 25923) [9],1.25 mg/mL
same,MCB,S. Sanguis (ATCC 10556) [10],0.62 mg/mL
C=C(C)C(=O)NCCC[N+](C)(C)CCCCCCCCCCCC[N+](C)(C)CCCNC(=O)C(=C)C.[F-].[F-] [Example 4],MBC,S. mutans (ATCC 25175) [1],156 µg/mL
same,MIC,S. mutans (ATCC 25175) [2],156 µg/mL
C=C(C)C(=O)OCC[N+](C)(C)Cc1ccc(C[N+](C)(C)CCOC(=O)C(=C)C)cc1.[Br-].[Br-] [Example 8],MBC,S. mutans (ATCC 25175) [1],2500 µg/mL
same,MIC,S. mutans (ATCC 25175) [2],2500 µg/mL

# Reference: US20220402872A1, “PHOTOPOLYMERIZABLE ANTIBACTERIAL MONOMER” (UNIVERSITA' DEGLI STUDI DI TRIESTE, priority 2019, published 2022)
